Test results reported in the NIST ThermoML archive (doi:10.1016/j.jct.2005.09.003).

Assay: xn = mol fraction of the nth substance listed
Details: 298.15 K, Liquid

CCCCCCCl [1-chlorohexane] + CCCCCCCC
mass density [kg/m3]
Details | x2 = 0 | x2 = 0.1016 | x2 = 0.1996 | x2 = 0.3153 | x2 = 0.3948 | x2 = 0.4862 | x2 = 0.5938 | x2 = 0.6966 | x2 = 0.794 | x2 = 0.9001
20370 kPa | – | – | – | – | 812.64 | 796.42 | 778.03 | 761.06 | 745.51 | 729.16
22390 kPa | 890.65 | 870.05 | 850.64 | 828.77 | 814.1 | 797.89 | 779.48 | 762.51 | 746.97 | 730.59
24420 kPa | 892.14 | 871.52 | 852.13 | 830.22 | 815.56 | 799.35 | 780.91 | 763.95 | 748.37 | 732.01
26450 kPa | 893.54 | 872.95 | 853.55 | 831.64 | 816.97 | 800.75 | 782.33 | 765.32 | 749.76 | 733.39
28470 kPa | 894.96 | 874.35 | 854.96 | 833.04 | 818.37 | 802.14 | 783.71 | 766.73 | 751.13 | 734.74
29490 kPa | 895.65 | 875.05 | 855.64 | 833.73 | 819.06 | 802.85 | 784.39 | 767.4 | 751.81 | 735.41
30500 kPa | 896.32 | 875.72 | 856.33 | 834.42 | 819.73 | 803.52 | 785.07 | 768.07 | 752.47 | 736.07
32530 kPa | 897.71 | 877.11 | 857.7 | 835.79 | 821.11 | 804.86 | 786.42 | 769.4 | 753.8 | 737.38
34550 kPa | 899.05 | 878.46 | 859.03 | 837.12 | 822.43 | 806.19 | 787.72 | 770.72 | 755.08 | 738.69
36580 kPa | 900.38 | 879.77 | 860.35 | 838.43 | 823.74 | 807.48 | 789.01 | 772.01 | 756.36 | 739.94
38600 kPa | 901.69 | 881.06 | 861.67 | 839.72 | 825.03 | 808.77 | 790.32 | 773.27 | 757.63 | 741.21
39620 kPa | 902.33 | 881.71 | 862.31 | 840.38 | 825.68 | 809.4 | 790.96 | 773.9 | 758.25 | –
